The numbers were not newly measured in publication PMC9347208, “Pharmacological activation of the hERG K^+ channel for the management of the long QT syndrome: A review” (Journal of Arrhythmia, 2022), which cites them from elsewhere.

Entries after “also recorded” stand apart in the source; their conditions may differ. Read-outs that look alike come from different tables or passages of the source.

Series [1] concerns IKs. More on the design: method as in PMID 29050968, PMID 20097192, PMID 12931255. As to conditions: ref [41], [55], [81].
For series [2], the system named is hERG channel. Conditions: for Type: type of hERG activator by main mechanism of action, ref [40]. Background: Block of hERG is tested as a sign of cardiac risk.
A further series deals with IKAch. Also on record: method as in PMID 29050968, PMID 20097192, PMID 12931255. Conditions: ventricular guinea pig myocytes; ref [41], [55], [81].
The test system of series [3] is hERG channel.
The subject of series [4] is voltage‐dependent Na^+ channels. More on the design: method as in PMID 29050968, PMID 20097192, PMID 12931255. As to conditions: ref [41], [55], [81].
In series [5] the test system is ICa,L. Also on record: method as in PMID 29050968, PMID 20097192, PMID 12931255. As to conditions: ref [41], [55], [81].
Series [6] relates to IK1. More on the design: method as in PMID 29050968, PMID 20097192, PMID 12931255. Conditions: ref [41], [55], [81].
Another series relates to IKATP channels. More on the design: method as in PMID 29050968, PMID 20097192, PMID 12931255. As to conditions: ref [41], [55], [81].
Series [7] concerns Ca^2+‐activated K^+ (BK channel). Conditions: ref [41], [55], [81].
In series [8] the test system is Ito. More on the design: method as in PMID 29050968, PMID 20097192, PMID 12931255. As to conditions: ref [41], [55], [81].
The subject of a further series is Kv1.5 (IKur). As to conditions: 50 μM; ref [19], [21].
For series [9], the system named is Dofetilide‐induced arrhythmias. As to conditions: after pretreatment; ref [19], [21].
The test system of series [10] is hERG channel. As to conditions: astemizole, sertindole, dofetilide, and cisapride, radioligand assays, ref [19] and column References of the table row.
Series [11] has as its system ventricular repolarisation (APD, QT interval).
The subject of series [12] is neuronal Kv12.1 ether‐à‐ go‐go‐gene‐like (elk3) channel. More on the design: method as in PMID 24041920, PMID 25809254, PMID 18452879, PMID 29050968, PMID 25191697. As to conditions: ref [16], [27], [32], [41], [48], [58], [61], [70], [84].
In series [13] the test system is IK1.
The next series has as its system guinea pig hearts. As to conditions: Langendorff‐perfused Guinea pig hearts, high concentrations; ref [16], [27], [32], [41], [48], [58], [61], [70], [84].
In the next series the test system is hERG1a and hERG1b. Also on record: method as in column Ref. of the table row.
Series [14] relates to Ito. More on the design: method as in PMID 29050968, PMID 18042732. As to conditions: ventricular cardiomyocytes isolated from rabbit hearts; ref [41], [83].
In series [15] the test system is ICa,L. More on the design: method as in PMID 29050968, PMID 18042732. Conditions: ventricular cardiomyocytes isolated from rabbit hearts; ref [41], [83].
In series [16] the test system is IKs. More on the design: method as in PMID 15976038, PMID 29050968, PMID 19892732, PMID 31877041, PMID 23840331. As to conditions: recorded from isolated guinea pig cardiomyocytes; ref [22], [41], [52], [53], [59], [60].
Series [17] has as its system APD, EADs, and QT prolongation. More on the design: method as in PMID 15976038, PMID 29050968, PMID 19892732, PMID 31877041, PMID 23840331. Conditions: 3 μM; caused by high‐affinity inhibitor dofetilide; ref [22], [41], [52], [53], [59], [60].
The subject of another series is SQT1 model. Also on record: method as in column Ref. of the table row. Conditions: by creating the substrate for reentry.
The test system of another series is hERG channel mutants. Also on record: method as in column Ref. of the table row. As to conditions: mutation named in the value.
A further series deals with E637K hERG mutant. Also on record: method as in PMID 15976038, PMID 29050968, PMID 19892732, PMID 31877041, PMID 23840331. Conditions: ref [22], [41], [52], [53], [59], [60].
Series [18] has as its system perfused canine atrial preparations. More on the design: method as in PMID 15976038, PMID 29050968, PMID 19892732, PMID 31877041, PMID 23840331. Conditions: ERP abbreviation and TDR amplification, ref [22], [41], [52], [53], [59], [60].
Series [19] concerns ICa,L. As to conditions: recorded from guinea pig cardiomyocytes.
A further series relates to IKr. As to conditions: native human cardiomyocytes from LQT1 patients; ref [19], [29].
A further series relates to hCav1.2 (ICa,L). Also on record: method as in column Ref. of the table row.
For a further series, the system named is hKv4.3 (Ito). As to conditions: ref [19], [29].
The test system of the next series is hKir2.1 (IK1). Conditions: ref [19], [29].
The mark [20] stands for this setting: suggested, as no change to AP amplitude and diastolic potential of guinea pig cardiomyocytes.
The mark [21] stands for this setting: recorded from isolated guinea pig cardiomyocytes, ref [22], [41], [52], [53], [59], [60].

In the case of `Cc1oc2ccccc2c1Cc1cc(I)c(OCC(=O)O)c(I)c1` [KB130015], in the series with IKs [1], the “Channel selectivity: effect on IKs” value was “Activates”. Besides, the Type with hERG channel [2] is listed as 3. The “Channel selectivity: effect on IKAch” value in the series on IKAch is given as “inhibits”. The “Reported benefit for LQTS: diLQTS, hERG block by amiodarone and E‐4031” value with hERG channel [3] (ref [41], [55], [81]) was “diLQTS: Functionally competes with hERG block by amiodarone and E‐4031”. In addition, the “Channel selectivity: effect on voltage‐dependent Na^+ channels” value in series [4] is “Slows the inactivation”. Further, the “Channel selectivity: effect on ICa,L” value in the series with ICa,L [5] is listed as “Inhibits”. The “Channel selectivity: effect on IK1” value in the series on IK1 [6] is “No effect”. For the same compound, the “Channel selectivity: effect on IKATP channels” value with IKATP channels is “Inhibits”. In series [7], the “Channel selectivity: effect on large‐conductance calcium‐activated potassium (BK) channels” value is reported as “Activates”. Besides, in the series with Ito [8], the “Channel selectivity: effect on Ito” value was “No effect”.
With `O=C(COc1ccc2ccccc2c1Br)Nc1cccnc1` [VU0405601], the “Channel selectivity: effect on recombinant Nav1.5 (INa)” value in the series on hNav1.5 (INa) (50 μM, ref [19], [21]) is “No or small effect of 50 μM on recombinant cardiac Kv1.5 (IKur), Nav1.5 (INa), and KCNQ1 + KCNE1 (IKs) channels”. For the same compound, the “Channel selectivity: effect on recombinant cardiac Kv1.5 (IKur)” value in the series with Kv1.5 (IKur) was “No or small effect of 50 μM on recombinant cardiac Kv1.5 (IKur), Nav1.5 (INa), and KCNQ1 + KCNE1 (IKs) channels”. Also, the “Reported benefit for LQT: diLQTS, dofetilide‐induced arrhythmias” value in series [9] is “reduced”. In addition, the “Allosteric effect on the binding of hERG blockers” value in the series with hERG channel [10] is listed as “negative allosteric modulators; also recorded: weaken interactions”. In addition, the “Channel selectivity: effect on recombinant KCNQ1 + KCNE1 (IKs)” value in the series with hKCNQ1‐KCNE1 (IKs) (50 μM, ref [19], [21]) is “No or small effect of 50 μM on recombinant cardiac Kv1.5 (IKur), Nav1.5 (INa), and KCNQ1 + KCNE1 (IKs) channels”.
As for `O=C(Nc1cc(C(F)(F)F)ccc1O)Nc1cc(C(F)(F)F)ccc1O` [NS1643, 1,3‐bis‐(2‐hydroxy‐5‐trifluoromethyl‐phenyl)‐urea], the “Efficacy against triggered activity” value in [11] (low concentration, in vitro and ex vivo experimental models, ref [32]) is “effective against triggered activity”. In addition, the “TDR and instability of the QT interval” value in series [11] (only in the presence of an I Ks inhibitor, ref [16]) is on record as “markedly amplify”. For the same compound, the “Channel selectivity: effect on neuronal Kv12.1 (elk3) channel” value in series [12] was “Inhibitor”. Also, the “Effect against Nav1.5 channels” value in the series on hNav1.5 (INa) (ref [32]) is listed as “inhibitory effects”. Besides, the “Potency in reducing hERG channel inactivation” value in the series with hERG channel [2] (ref [16], [31]) is recorded as “modest potency compared with ICA‐105574”. The Type with hERG channel [2] was 1, 2, and possibly 3. In the series on hERG channel [3] (10 μM, inhibitors e.g. E‐4031, dofetilide, moxifloxacin, ref [16], [27], [32], [41], [48], [58], [61], [70], [84]), the “Reported benefit for LQT: diLQTS, effects of hERG inhibition by drug inhibitors” value is given as “attenuate electrophysiological effects associated with hERG inhibition by various drug inhibitors; also recorded: did not reverse the inhibition to the control levels”. Besides, in the series with INa (setting [20]), the “Channel selectivity: effect on cardiac INa” value is recorded as “Suggested absence”. Further, the “Channel selectivity: effect on cardiac IK1” value with IK1 [13] (setting [20]) is “Suggested absence”. In the series on guinea pig hearts, the “Reported associated pro‐arrhythmic risk: ventricular tachycardia and fibrillation” value was “Induces ventricular tachycardia and ventricular fibrillation”. Also, the “Channel selectivity: sensitivity of hERG1a versus hERG1b” value in the series on hERG1a and hERG1b is on record as “Differential sensitivity”.
Turning to `O=C(O)c1cccnc1Nc1ccc2c(c1)CN(c1ccc(Cl)c(Cl)c1)C2` [PD‐307243], the “Channel selectivity: effect on recombinant hNav1.5 (INa)” value with hNav1.5 (INa) is reported as “No effect”. For the same compound, the “Channel selectivity: effect on Ito” value in the series with Ito [14] is on record as “no effect”. In addition, in the series on hERG channel [3] (ref [41], [83]), the “Reported benefit for LQT: activator effect in presence of BeKm‐1” value was “potentiated”; the “Reported benefit for LQT: diLQTS, interaction with dofetilide” value is “Dofetilide prevents the activator effect of PD and unmasks its current suppressing effect”. The “Channel selectivity: effect on ICa,L” value with ICa,L [15] is reported as “Activates”. Moreover, the “Channel selectivity: effect on recombinant hKCNQ1‐KCNE1 (IKs)” value with hKCNQ1‐KCNE1 (IKs) is “No effect”.
With `O=C(O)c1ccccc1Nc1ccc(CCc2ccc(Cl)c(Cl)c2)cc1` [PD‐118057], the “Channel selectivity: effect on IKs” value with IKs [16] was “No effect on INa, ICa‐L, IK1, and IKs recorded from isolated guinea pig cardiomyocytes”. Moreover, the “Effect on PRRP and QT interval” value in series [11] (ref [21], [60], [61]) is “increase the PRRP and shorten the QT interval but potentially to the point of triggering arrhythmia”. For the same compound, the Type in the series with hERG channel [2] is listed as 4. In series [17], the “Reported benefit for LQTS: diLQTS” value is “prevents APD, EADs, and QT prolongation”. Further, the “Channel selectivity: effect on INa” value in the series on INa (setting [21]) is “No effect on INa, ICa‐L, IK1, and IKs recorded from isolated guinea pig cardiomyocytes”. Also, the “Channel selectivity: effect on IK1” value with IK1 [13] (setting [21]) is “No effect on INa, ICa‐L, IK1, and IKs recorded from isolated guinea pig cardiomyocytes”. In addition, in the series on SQT1 model, the “Reported associated pro‐arrhythmic risk: SQT1 manifestations” value is “Recapitulates the electrophysiological and arrhythmic manifestations of SQT1”. Also, in the series on hERG channel mutants, the “Molecular determinants of activity: effect of hERG mutations on agonist activity” value was “Mutation to F619 and L646 suppresses agonist activity; also recorded: Mutation to C643 and M645 enhances drug activity”. Further, in the series on E637K hERG mutant, the “Reported benefit for LQTS: cLQTS, rescue of E637K hERG mutant” value is “Failed to rescue”. Further, the “Reported associated pro‐arrhythmic risk: arrhythmia provocations” value in series [18] was “Increases arrhythmia provocations”. The “Channel selectivity: effect on cardiac ICa,L” value with ICa,L [19] was “No effect on INa, ICa‐L, IK1, and IKs recorded from isolated guinea pig cardiomyocytes”.
Take `O=C(COc1ccc(C(=O)c2ccccc2)cc1)Nc1cccnc1` [ML‐T531]: the “Reported benefit for LQT: cLQTS, IKr” value in the series with IKr is given as “IKr increase”. For the same compound, the “Channel selectivity: effect on recombinant hNav1.5 (INa)” value in the series on hNav1.5 (INa) is “No effect”. Also, the “Channel selectivity: effect on recombinant hCav1.2 (ICa,L)” value in the series on hCav1.2 (ICa,L) was “No effect”. Also, the “Channel selectivity: effect on recombinant hKv4.3 (Ito)” value in the series with hKv4.3 (Ito) was “No effect”. The “Allosteric effect on the binding of hERG blockers” value was “Negative effect on the binding” in the series on hERG channel [10] and “negative allosteric modulators” in the series on hERG channel [10] (listed as MLT‐531). The “Channel selectivity: effect on recombinant hKir2.1 (IK1)” value with hKir2.1 (IK1) is given as “No effect”. Moreover, the “Channel selectivity: effect on hKCNQ1‐KCNE1 channels (IKs)” value with hKCNQ1‐KCNE1 (IKs) (10 μM, ref [19], [29]) is given as “minor suppressive effect”.
